Drawing on PubChem BioAssay AID256 (DTP/NCI, 2004), this text covers T/C for 19 molecules.

The assay has as its system CD2F1 mice, L1210 leukemia ip, survival T/C. Description: NCI In Vivo Anticancer Drug Screen. Data for tumor model L1210 Leukemia (intraperitoneal) in CD2F1 (CDF1) mice. The following applies: higher = longer survival. The method in brief: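 Compound-dosed mice with transplantable tumor versus matched vehicle controls; endpoint ratio T/C reported.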
Setting [1] is: endpoint: mean survival time, dose: 100.0 mg/kg/injection, schedule: Q01DX009 (ip), vehicle: saline with Tween-80.
The mark [2] stands for this setting: endpoint: mean survival time, dose: 100.0 mg/kg/injection, schedule: Q04DX003 (ip), vehicle: saline with Tween-80.
Setting [3] is: endpoint: mean survival time, dose: 200.0 mg/kg/injection, schedule: Q01DX009 (ip), vehicle: saline with Tween-80.
Where [4] appears, read: endpoint: mean survival time, dose: 200.0 mg/kg/injection, schedule: Q04DX003 (ip), vehicle: saline with Tween-80.
Where [5] appears, read: endpoint: mean survival time, dose: 400.0 mg/kg/injection, schedule: Q01DX009 (ip), vehicle: saline with Tween-80.
[6] abbreviates: endpoint: mean survival time, dose: 400.0 mg/kg/injection, schedule: Q04DX003 (ip), vehicle: saline with Tween-80.
Setting [7] is: endpoint: mean survival time, dose: 100.0 mg/kg/injection, schedule: Q01DX001 (ip), vehicle: saline.
Setting [8] is: endpoint: mean survival time, dose: 200.0 mg/kg/injection, schedule: Q01DX001 (ip), vehicle: saline.
Where [9] appears, read: endpoint: mean survival time, dose: 50.0 mg/kg/injection, schedule: Q04DX003 (ip), vehicle: saline.
Where [10] appears, read: endpoint: mean survival time, dose: 100.0 mg/kg/injection, schedule: Q04DX003 (ip), vehicle: saline.
The mark [11] stands for this setting: endpoint: mean survival time, dose: 2.5 mg/kg/injection, schedule: Q01DX009 (ip), vehicle: sodium bicarbonate.
[12] abbreviates: endpoint: mean survival time, dose: 5.0 mg/kg/injection, schedule: Q01DX009 (ip), vehicle: sodium bicarbonate.
[13] abbreviates: endpoint: mean survival time, dose: 10.0 mg/kg/injection, schedule: Q01DX009 (ip), vehicle: sodium bicarbonate.
The mark [14] stands for this setting: endpoint: mean survival time, dose: 100.0 mg/kg/injection, schedule: Q04DX002 (ip), vehicle: saline.
Setting [15] is: endpoint: mean survival time, dose: 200.0 mg/kg/injection, schedule: Q04DX002 (ip), vehicle: saline.
Where [16] appears, read: endpoint: mean survival time, dose: 100.0 mg/kg/injection, schedule: Q01DX001 (ip), vehicle: saline with Tween-80.
Setting [17] is: endpoint: mean survival time, dose: 200.0 mg/kg/injection, schedule: Q01DX001 (ip), vehicle: saline with Tween-80.

Several values for one entry are separate records, joined by “and”; a condition that tells them apart may be missing. Equal entries are not always repeated. Inconclusive results and toxic doses are left out.

For `NCCCCCCN=C(N)C(N)=NCCCCCCN`, the T/C is 116 % of control (endpoint: mean survival time, dose: 3.13 mg/kg/injection, schedule: Q04DX002 (ip), vehicle: saline); 90 % of control (endpoint: mean survival time, dose: 6.25 mg/kg/injection, schedule: Q04DX002 (ip), vehicle: saline); 101 % of control (endpoint: mean survival time, dose: 12.5 mg/kg/injection, schedule: Q04DX002 (ip), vehicle: saline).

With `CC(C)OC(CCCl)c1ccc(Cl)cc1` (centres undefined), the T/C under setting [1] was 104 % of control; the T/C under setting [2] was 94 % of control; the T/C under setting [3] was 96 % of control; the T/C under setting [4] was 96 % of control; the T/C under setting [5] is 89 % of control; the T/C under setting [6] was 97 % of control.

With `COc1ccc2c(c1OC)CC1N(S(=O)(=O)c3ccc(C)cc3)CCC13c1ccccc1N(C(C)=O)C23` (centres undefined), the T/C is 95 % of control (endpoint: mean survival time, dose: 75.0 mg/kg/injection, schedule: Q01DX001 (ip), vehicle: other); 89 % of control and 95 % of control (endpoint: mean survival time, dose: 150.0 mg/kg/injection, schedule: Q01DX001 (ip), vehicle: other); 97 % of control and 100 % of control (endpoint: mean survival time, dose: 300.0 mg/kg/injection, schedule: Q01DX001 (ip), vehicle: other).

With `N=c1nc2n(cc1F)[C@@H]1O[C@H](CO)[C@@H](O)[C@@H]1O2`, the T/C is, setting by setting: (endpoint: mean survival time, dose: 17.0 mg/kg/injection, schedule: Q04DX003 (ip), vehicle: saline) 119 % of control; (endpoint: mean survival time, dose: 25.0 mg/kg/injection, schedule: Q01DX009 (ip), vehicle: saline) 155 % of control; (endpoint: mean survival time, dose: 50.0 mg/kg/injection, schedule: Q01DX009 (ip), vehicle: saline) 162 % of control and 188 % of control; (endpoint: mean survival time, dose: 68.0 mg/kg/injection, schedule: Q04DX003 (ip), vehicle: saline) 150 % of control; under setting [7], 110 % of control; (endpoint: mean survival time, dose: 100.0 mg/kg/injection, schedule: Q01DX009 (ip), vehicle: saline) 193 % of control and 250 % of control. The T/C is, setting by setting: under setting [8], 117 % of control; (endpoint: mean survival time, dose: 200.0 mg/kg/injection, schedule: Q01DX009 (ip), vehicle: saline) 224 % of control and 303 % of control; (endpoint: mean survival time, dose: 400.0 mg/kg/injection, schedule: Q01DX001 (ip), vehicle: saline) 120 % of control; (endpoint: mean survival time, dose: 400.0 mg/kg/injection, schedule: Q01DX009 (ip), vehicle: saline) 305 % of control and 331 % of control; (endpoint: mean survival time, dose: 800.0 mg/kg/injection, schedule: Q01DX009 (ip), vehicle: saline) 239 % of control; (endpoint: median survival time, dose: 16.0 mg/kg/injection, schedule: Q01DX005 (ip), vehicle: saline) 124 % of control. The T/C runs as follows: (endpoint: median survival time, dose: 256.0 mg/kg/injection, schedule: Q01DX005 (ip), vehicle: saline) 216 % of control; (endpoint: median survival time, dose: 512.0 mg/kg/injection, schedule: Q01DX005 (ip), vehicle: saline) 349 % of control.

`CCOC(=O)C(C(=O)OCC)[N+](=O)[O-]`: the T/C by setting is: under setting [9], 102 % of control; under setting [7], 97 % of control; under setting [10], 100 % of control; under setting [8], 95 % of control; (endpoint: mean survival time, dose: 200.0 mg/kg/injection, schedule: Q04DX003 (ip), vehicle: saline) 105 % of control.

Consider `Cc1cc(S(=O)(=O)c2ccc(O)c(C)c2)ccc1O`, for which the T/C is 103 % of control (endpoint: mean survival time, dose: 100.0 mg/kg/injection, schedule: Q04DX002 (ip), vehicle: saline with Tween-80); 100 % of control (endpoint: mean survival time, dose: 200.0 mg/kg/injection, schedule: Q04DX002 (ip), vehicle: saline with Tween-80); 97 % of control (endpoint: mean survival time, dose: 400.0 mg/kg/injection, schedule: Q04DX002 (ip), vehicle: saline with Tween-80).

Regarding `CN(Cc1cnc2nc(N)nc(N)c2n1)c1ccc(C(=O)NC(CCC(=O)NC(CCC(=O)O)C(=O)O)C(=O)O)cc1` (centres undefined), the T/C was 165 % of control under setting [11], 119 % of control under setting [12] and 89 % of control under setting [13].

In the case of `CCOC(=O)c1ccc(OC(=O)Nc2ccc(Cl)cc2)cc1`, the T/C reads like this: under setting [1], 96 % of control; under setting [2], 94 % of control; under setting [3], 102 % of control; under setting [4], 94 % of control; under setting [5], 100 % of control.

With `CN(C)C(=O)OCC#CCOC(=O)N(C)C`, the T/C reads like this: under setting [14], 101 % of control; under setting [15], 86 % of control.

For `CCN(Cc1cnc2nc(N)nc(N)c2n1)c1ccc(C(=O)NC(CCC(=O)O)C(=O)O)cc1` (centres undefined), the T/C reads like this: under setting [11], 172 % of control; under setting [12], 174 % of control; (endpoint: mean survival time, dose: 6.25 mg/kg/injection, schedule: Q01DX009 (ip), vehicle: sodium bicarbonate) 89 % of control; under setting [13], 217 % of control; (endpoint: mean survival time, dose: 12.5 mg/kg/injection, schedule: Q01DX009 (ip), vehicle: sodium bicarbonate) 92 % of control.

On to `CN(c1ccccc1)c1ccc(N=Nc2nc3ccccc3s2)cc1`, for which the T/C by setting is: under setting [16], 95 % of control; under setting [17], 98 % of control; (endpoint: mean survival time, dose: 400.0 mg/kg/injection, schedule: Q01DX001 (ip), vehicle: saline with Tween-80) 87 % of control.

For `CC1Cc2c3ccc4ccccc4c3cc3cccc1c23` (centres undefined) (tested in a mixture with another compound), the T/C was 105 % of control (endpoint: mean survival time, dose: 75.0 mg/kg/injection, schedule: Q04DX002 (ip), vehicle: saline with Tween-80); 105 % of control (endpoint: mean survival time, dose: 150.0 mg/kg/injection, schedule: Q04DX002 (ip), vehicle: saline with Tween-80); 97 % of control (endpoint: mean survival time, dose: 300.0 mg/kg/injection, schedule: Q04DX002 (ip), vehicle: saline with Tween-80).

Turning to `CC(CCOc1ccc2ccc(=O)oc2c1)C1=CC(=O)C(C)(C)O1` (centres undefined), the T/C runs as follows: (endpoint: mean survival time, dose: 50.0 mg/kg/injection, schedule: Q01DX001 (ip), vehicle: saline with Tween-80) 113 % of control; under setting [16], 95 % of control; under setting [17], 98 % of control.

Turning to `CCCCOc1ccc(NC(=O)CCl)cc1`, the T/C reads like this: (endpoint: mean survival time, dose: 25.0 mg/kg/injection, schedule: Q01DX009 (ip), vehicle: saline with Tween-80) 96 % of control; (endpoint: mean survival time, dose: 25.0 mg/kg/injection, schedule: Q04DX003 (ip), vehicle: saline) 95 % of control; (endpoint: mean survival time, dose: 50.0 mg/kg/injection, schedule: Q01DX009 (ip), vehicle: saline with Tween-80) 96 % of control; under setting [9], 101 % of control; under setting [10], 94 % of control.

Take `Cc1[nH]c2ccccc2c1C(=O)C(N)=O`: the T/C is 100 % of control under setting [1]; 92 % of control under setting [2]; 97 % of control under setting [3]; 86 % of control under setting [4]; 95 % of control under setting [5]; 92 % of control under setting [6].

`Cc1ccc(NC(=O)NO)cc1`: the T/C was 95 % of control (endpoint: mean survival time, dose: 4.0 mg/kg/injection, schedule: Q03HX024 (ip), vehicle: saline); 93 % of control (endpoint: mean survival time, dose: 8.0 mg/kg/injection, schedule: Q03HX024 (ip), vehicle: saline); 101 % of control (endpoint: mean survival time, dose: 16.0 mg/kg/injection, schedule: Q03HX024 (ip), vehicle: saline); 87 % of control (endpoint: mean survival time, dose: 32.0 mg/kg/injection, schedule: Q03HX024 (ip), vehicle: saline); 97 % of control (endpoint: mean survival time, dose: 62.0 mg/kg/injection, schedule: Q03HX024 (ip), vehicle: saline with Tween-80); 93 % of control (endpoint: mean survival time, dose: 64.0 mg/kg/injection, schedule: Q03HX024 (ip), vehicle: saline). Further, the T/C (endpoint: mean survival time, dose: 93.0 mg/kg/injection, schedule: Q03HX024 (ip), vehicle: saline with Tween-80) is 99 % of control.

Turning to `O=c1[nH]cnc2c1ncn2C1CC(CO)C(O)OC1O` (centres undefined), the T/C runs as follows: under setting [14], 164 % of control; under setting [15], 188 % of control.

In the case of `CC(C)C1CCC(C)C(C(O)(C(F)(F)F)C(F)(F)F)C1=O` (centres undefined), the T/C reads like this: (endpoint: mean survival time, dose: 100.0 mg/kg/injection, schedule: Q04DX003 (ip), vehicle: Klucel (hydroxypropylcellulose) (HPC)) 96 % of control; (endpoint: mean survival time, dose: 200.0 mg/kg/injection, schedule: Q04DX003 (ip), vehicle: Klucel (hydroxypropylcellulose) (HPC)) 95 % of control; (endpoint: mean survival time, dose: 400.0 mg/kg/injection, schedule: Q04DX003 (ip), vehicle: Klucel (hydroxypropylcellulose) (HPC)) 96 % of control.

As to `CCOC(=O)NC(=O)CC#N`, the T/C runs as follows: under setting [2], 101 % of control; under setting [4], 93 % of control; under setting [6], 103 % of control.
